Data: patent publication US20240050428A1 (Cullgen (Shanghai), Inc., priority 2020, published 2024)
Like-named read-outs stand apart in the source and are kept apart here.

Experiments:
MOLM-13 cells = test: Cell viability assay (CellTiter-Glo) in MOLM-13 cells, alone or with gilteritinib; format: cell-based; conditions: Homo sapiens, MOLM-13 cells, three days, CellTiter-Glo
MV4;11 cells = test: Cell viability assay (CellTiter-Glo) in MV4;11 cells, alone or with gilteritinib; format: cell-based; conditions: Homo sapiens, MV4;11 cells, three days, CellTiter-Glo, read-out: MV4
[1] = MOLM-13, 72 h, compound alone (without gilteritinib), read-out: MOLM-13 IC50
[2] = MOLM-13, 72 h, with gilteritinib 20 nM, read-out: MOLM-13 IC50 gilteritinib
[3] = MV4-11, 72 h, compound alone (without gilteritinib), 11 IC50
[4] = MV4-11, 72 h, with gilteritinib 10 nM, 11 IC50 gilteritinib

Row | Compound | IC50 (MOLM-13 cells; [1]) | IC50 (MOLM-13 cells; [2]) | IC50 (MV4;11 cells; [3]) | IC50 (MV4;11 cells; [4]) | IC50 (MOLM-13 cells; 72 h, compound alone (without gilteritinib), read-out: MOLM-13 IC50) | IC50 (MOLM-13 cells; 72 h, with gilteritinib 20 nM, read-out: MOLM-13 IC50 gilteritinib) | IC50 (MV4;11 cells; 72 h, compound alone (without gilteritinib), 11 IC50) | IC50 (MV4;11 cells; 72 h, with gilteritinib 10 nM, 11 IC50 gilteritinib)
1 | O=C1CCC(N2C(=O)c3ccc(NCCOCCC(=O)N4CCC(n5cc(-c6cnc7ccccc7n6)cn5)CC4)cc3C2=O)C(=O)N1 (centres unmarked) [GS-324, 2-(2,6-Dioxopiperidin-3-yl)-5-((2-(3-oxo-3-(4-(4-(quinoxalin-2-yl)-1H-pyrazol-1-yl)piperidin-1-yl)propoxy)ethyl)amino)isoindoline-1,3-dione] | > 1000 nM | 10 to 100 nM | > 1000 nM | 100 to 1000 nM |  |  |  | 
2 | O=C1CCC(N2C(=O)c3ccc(NC(=O)CCCCC(=O)N4CCC(n5cc(-c6cnc7ccccc7n6)cn5)CC4)cc3C2=O)C(=O)N1 (centres unmarked) [GS-325, N-(2-(2,6-Dioxopiperidin-3-yl)-1,3-dioxoisoindolin-5-yl)-6-oxo-6-(4-(4-(quinoxalin-2-yl)-1H-pyrazol-1-yl)piperidin-1-yl)hexanamide] | > 1000 nM | 100 to 1000 nM | > 1000 nM | 100 to 1000 nM |  |  |  | 
3 | O=C1CCC(N2C(=O)c3ccc(NCCCCCCN4CCC(n5cc(-c6cnc7ccccc7n6)cn5)CC4)cc3C2=O)C(=O)N1 (centres unmarked) [GS-326, 2-(2,6-Dioxopiperidin-3-yl)-5-((6-(4-(4-(quinoxalin-2-yl)-1H-pyrazol-1-yl)piperidin-1-yl)hexyl)amino)isoindoline-1,3-dione] | > 1000 nM | 100 to 1000 nM | > 1000 nM | > 1000 nM |  |  |  | 
4 | O=C1CCC(N2C(=O)c3ccc(NC(=O)CCCC(=O)N4CCC(n5cc(-c6cnc7ccccc7n6)cn5)CC4)cc3C2=O)C(=O)N1 (centres unmarked) [GS-327, N-(2-(2,6-Dioxopiperidin-3-yl)-1,3-dioxoisoindolin-5-yl)-5-oxo-5-(4-(4-(quinoxalin-2-yl)-1H-pyrazol-1-yl)piperidin-1-yl)pentanamide] | > 1000 nM | > 1000 nM | > 1000 nM | 100 to 1000 nM |  |  |  | 
5 | O=C1CCC(N2C(=O)c3ccc(NCCC[C@H]4C[C@H](n5cc(-c6cc(Cl)ccn6)cn5)C4)cc3C2=O)C(=O)N1 (stereo partly drawn) [GS-328, 5-((3-(trans-3-(4-(4-Chloropyridin-2-yl)-1H-pyrazol-1-yl)cyclobutyl)propyl)amino)-2-(2,6-dioxopiperidin-3-yl)isoindoline-1,3-dione] | > 1000 nM | 10 to 100 nM | 100 to 1000 nM | 10 to 100 nM |  |  |  | 
6 | O=C1CCC(N2Cc3cc(OCCCCCC(=O)N4CCN(c5ccccc5)CC4)ccc3C2=O)C(=O)N1 (centres unmarked) [GS-329, 3-(1-Oxo-5-((6-oxo-6-(4-phenylpiperazin-1-yl)hexyl)oxy)isoindolin-2-yl)piperidine-2,6-dione] |  |  |  |  | > 1000 nM | 100 to 1000 nM | > 1000 nM | > 1000 nM
7 | O=C1CCC(N2C(=O)c3ccc(NC(=O)COCCC(=O)N4CCC(n5cc(-c6cnc7ccccc7n6)cn5)CC4)cc3C2=O)C(=O)N1 (centres unmarked) [GS-330, N-(2-(2,6-Dioxopiperidin-3-yl)-1,3-dioxoisoindolin-5-yl)-2-(3-oxo-3-(4-(4-(quinoxalin-2-yl)-1H-pyrazol-1-yl)piperidin-1-yl)propoxy)acetamide] | > 1000 nM | > 1000 nM | > 1000 nM | > 1000 nM |  |  |  | 
8 | O=C1CCC(N2C(=O)c3ccc(NCCCCCCN4CCC(O)CC4)cc3C2=O)C(=O)N1 (centres unmarked) [GS-331, 2-(2,6-Dioxopiperidin-3-yl)-5-((6-(4-hydroxypiperidin-1-yl)hexyl)amino)isoindoline-1,3-dione] | > 1000 nM | 100 to 1000 nM | > 1000 nM | > 1000 nM |  |  |  | 
9 | O=C(CN1CCC(N2CCN(c3ccccn3)CC2)C1)NCc1ccc2c(c1)C(=O)N(C1CCC(=O)NC1=O)C2=O (centres unmarked) [GS-332, N-((2-(2,6-Dioxopiperidin-3-yl)-1,3-dioxoisoindolin-5-yl)methyl)-2-(3-(4-(pyridin-2-yl)piperazin-1-yl)pyrrolidin-1-yl)acetamide] | > 1000 nM | > 1000 nM | > 1000 nM | > 1000 nM |  |  |  | 
10 | O=C1CCC(N2C(=O)c3ccc(NCCCCCC(=O)N4CCC(O)(c5ccccc5)CC4)cc3C2=O)C(=O)N1 (centres unmarked) [GS-333, 2-(2,6-Dioxopiperidin-3-yl)-5-((6-(4-hydroxy-4-phenylpiperidin-1-yl)-6-oxohexyl)amino)isoindoline-1,3-dione] | > 1000 nM | 100 to 1000 nM | > 1000 nM | 100 to 1000 nM |  |  |  | 
11 | O=C1CCC(N2C(=O)c3ccc(NCCCCCC(=O)N4CC(Oc5ccccc5)C4)cc3C2=O)C(=O)N1 (centres unmarked) [GS-334, 2-(2,6-Dioxopiperidin-3-yl)-5-((6-oxo-6-(3-phenoxyazetidin-1-yl)hexyl)amino)isoindoline-1,3-dione] | > 1000 nM | 100 to 1000 nM | > 1000 nM | > 1000 nM |  |  |  | 
12 | O=C1CCC(N2C(=O)c3ccc(NCCCCCCN4CCC(C5CCC(O)CC5)CC4)cc3C2=O)C(=O)N1 (centres unmarked) [GS-335, 2-(2,6-Dioxopiperidin-3-yl)-5-((6-(4-(4-hydroxycyclohexyl)piperidin-1-yl)hexyl)amino)isoindoline-1,3-dione] | > 1000 nM | 100 to 1000 nM | > 1000 nM | > 1000 nM |  |  |  | 
13 | O=C1CCC(N2C(=O)c3ccc(NCCCCCC(=O)N4CC(Nc5ccccc5)C4)cc3C2=O)C(=O)N1 (centres unmarked) [GS-336, 2-(2,6-Dioxopiperidin-3-yl)-5-((6-oxo-6-(3-(phenylamino)azetidin-1-yl)hexyl)amino)isoindoline-1,3-dione] | > 1000 nM | > 1000 nM | > 1000 nM | > 1000 nM |  |  |  | 
14 | CN(c1ccccc1)C1CN(C(=O)CCCCCNc2ccc3c(c2)C(=O)N(C2CCC(=O)NC2=O)C3=O)C1 (centres unmarked) [GS-337, 2-(2,6-Dioxopiperidin-3-yl)-5-((6-(3-(methyl(phenyl)amino)azetidin-1-yl)-6-oxohexyl)amino)isoindoline-1,3-dione] | > 1000 nM | 100 to 1000 nM | > 1000 nM | > 1000 nM |  |  |  | 
15 | O=C1CCC(N2C(=O)c3ccc(NCCCCCCn4cc(-c5cnc6ccccc6n5)cn4)cc3C2=O)C(=O)N1 (centres unmarked) [GS-339, 2-(2,6-Dioxopiperidin-3-yl)-5-((6-(4-(quinoxalin-2-yl)-1H-pyrazol-1-yl)hexyl)amino)isoindoline-1,3-dione] | > 1000 nM | 10 to 100 nM | 100 to 1000 nM | < 10 nM |  |  |  | 
16 | O=C1CCC(N2C(=O)c3ccc(CNC(=O)C(F)(F)c4cccc(-n5cc(-c6cnc7ccccc7n6)cn5)c4)cc3C2=O)C(=O)N1 (centres unmarked) [GS-340, N-((2-(2,6-Dioxopiperidin-3-yl)-1,3-dioxoisoindolin-5-yl)methyl)-2,2-difluoro-2-(3-(4-(quinoxalin-2-yl)-1H-pyrazol-1-yl)phenyl)acetamide] | > 1000 nM | > 1000 nM | 100 to 1000 nM | > 1000 nM |  |  |  | 
17 | COc1ccnc(-c2cnn([C@H]3C[C@H](CCCNc4ccc5c(c4)C(=O)N(C4CCC(=O)NC4=O)C5=O)C3)c2)c1 (stereo partly drawn) [GS-341, 2-(2,6-Dioxopiperidin-3-yl)-5-((3-(trans-3-(4-(4-methoxypyridin-2-yl)-1H-pyrazol-1-yl)cyclobutyl)propyl)amino)isoindoline-1,3-dione] | 100 to 1000 nM | 10 to 100 nM | 10 to 100 nM | < 10 nM |  |  |  | 
18 | O=C1CCC(N2C(=O)c3ccc(NC(=O)COCC(=O)N4CCC(n5cc(-c6cnc7ccccc7n6)cn5)CC4)cc3C2=O)C(=O)N1 (centres unmarked) [GS-342, N-(2-(2,6-Dioxopiperidin-3-yl)-1,3-dioxoisoindolin-5-yl)-2-(2-oxo-2-(4-(4-(quinoxalin-2-yl)-1H-pyrazol-1-yl)piperidin-1-yl)ethoxy)acetamide] | > 1000 nM | > 1000 nM | > 1000 nM | > 1000 nM |  |  |  | 
19 | O=C1CCC(N2C(=O)c3ccc(NCCCN4CCC(n5cc(-c6cnc7ccccc7n6)cn5)CC4)cc3C2=O)C(=O)N1 (centres unmarked) [GS-343] | 100 to 1000 nM | 10 to 100 nM | > 1000 nM | > 1000 nM |  |  |  | 
20 | O=C1CCC(N2C(=O)c3ccc(NCCCN4CCC(N5CCN(c6ccccn6)CC5)C4)cc3C2=O)C(=O)N1 (centres unmarked) [GS-344, 2-(2,6-Dioxopiperidin-3-yl)-5-((3-(3-(4-(pyridin-2-yl)piperazin-1-yl)pyrrolidin-1-yl)propyl)amino)isoindoline-1,3-dione] | > 1000 nM | > 1000 nM | > 1000 nM | > 1000 nM |  |  |  | 
21 | O=C(CN1CC(N2CCN(c3ccccn3)CC2)C1)NCc1ccc2c(c1)C(=O)N(C1CCC(=O)NC1=O)C2=O (centres unmarked) [GS-345, N-((2-(2,6-Dioxopiperidin-3-yl)-1,3-dioxoisoindolin-5-yl)methyl)-2-(3-(4-(pyridin-2-yl)piperazin-1-yl)azetidin-1-yl)acetamide] | > 1000 nM | > 1000 nM | > 1000 nM | > 1000 nM |  |  |  | 
22 | O=C(CN1CCCC(n2cc(-c3cnc4ccccc4n3)cn2)C1)NCc1ccc2c(c1)C(=O)N(C1CCC(=O)NC1=O)C2=O (centres unmarked) [GS-346, N-((2-(2,6-Dioxopiperidin-3-yl)-1,3-dioxoisoindolin-5-yl)methyl)-2-(3-(4-(quinoxalin-2-yl)-1H-pyrazol-1-yl)piperidin-1-yl)acetamide] | > 1000 nM | > 1000 nM | > 1000 nM | > 1000 nM |  |  |  | 
23 | O=C1CCC(N2C(=O)c3ccc(NCCCN4CCCC(n5cc(-c6cnc7ccccc7n6)cn5)C4)cc3C2=O)C(=O)N1 (centres unmarked) [GS-347, 2-(2,6-Dioxopiperidin-3-yl)-5-((3-(3-(4-(quinoxalin-2-yl)-1H-pyrazol-1-yl)piperidin-1-yl)propyl)amino)isoindoline-1,3-dione] | > 1000 nM | 10 to 100 nM | > 1000 nM | > 1000 nM |  |  |  | 
